We go through one compound from patent US20050026897A1, “Trinuclear copper-based compound and ligand for nucleic acid scission and anticancer treatment” (priority 2001, published 2005).

Assay [1] deals with hairpin forming oligonucleotide (OD1). Kind of assay: Strand scission of 5'-32P-labeled hairpin oligonucleotide OD1 with MPA, PAGE / phosphorimage analysis. Type of assay: biochemical. As for the experimental part: (§1) FIG. 3 is an autoradiogram of a 20% polyacrylamide denaturing gel (7 M urea) showing cleavage products of 100 nM 5′-^32P-labeled OD1 incubated with a compound of formula I and MPA (3-mercaptopropionic acid) for 15 minutes in sodium phosphate (10 mM, pH 7.5) at ambient temperature. Lane 1 depicts OD1 alone. Lane 2 depicts OD1 with 5 μM formula I. Lane 3 depicts OD1 with 5 mM MPA. Lane 4-6 depict 0.5, 1, and 5 μM formula I with 5 mM MPA and OD1. Lane 7 depicts OD1+OD2 with 10 μM formula 1 and 5 mM MPA. Lane 8 depicts A+G sequencing lane.
A hairpin forming oligonucleotide (OD1) (SEQ ID NO. 2) (see FIG. 1) was treated with a compound of formula I in the presence of excess MPA and it was then quenched with dithiocarbamic acid. […] Selectivity was reduced to 66% if the concentration of the compound of formula I is increased 10-fold to 5 μm, due in part to an increase in reactivity primarily at A9, T10 and T21 (FIG. 3, lane 6). In the absence of either the thiol or the compound of formula I, no cleavage of OD1 was observed (FIG. 3, lanes 2 and 3). In addition, there was no enhancement of reaction at A9, T10 or T21. […] The persistent specificity for A22 when OD2 is present was likely due to residual hairpin formed in competition with duplex DNA. […]

The subject of the next assay is OD1+OD2 duplex DNA. Kind of assay: Strand scission of duplex-forming OD1+OD2 with MPA, PAGE. Type of assay: biochemical. On the procedure: as §1
A hairpin forming oligonucleotide (OD1) (SEQ ID NO. 2) (see FIG. 1) was treated with a compound of formula I in the presence of excess MPA and it was then quenched with dithiocarbamic acid. […] Selectivity was reduced to 66% if the concentration of the compound of formula I is increased 10-fold to 5 μm, due in part to an increase in reactivity primarily at A9, T10 and T21 (FIG. 3, lane 6). In the absence of either the thiol or the compound of formula I, no cleavage of OD1 was observed (FIG. 3, lanes 2 and 3). In addition, there was no enhancement of reaction at A9, T10 or T21. […] The persistent specificity for A22 when OD2 is present was likely due to residual hairpin formed in competition with duplex DNA.

Turning to `[Cu+2].c1cnc2c(c1)ccc1cccnc12.c1cnc2c(c1)ccc1cccnc12` [Cu(OP)2^2+, bis(1,10-phenanthroline)copper], the “A22 as target of reaction” value (in assay [1]; in the assay with OD1+OD2 duplex DNA) was “not a major target” throughout.
